Measurements as given in patent US20250262167A1, “COMPOUNDS, TARGETS AND PATHWAYS FOR MACROPHAGE MODULATION” (Massachusetts Institute of Technology, priority 2020, published 2025).
Where two headings read alike, the source gives them in different places.

Tests used:
β-arrestin2 = β-arrestin2 translocation assay (TIRF microscope); assay type: cell-based, mouse; conditions: 10 min, ImKCs and BMDMs; DPI 50 nM, S1P 3 mM
Procedure: FIGS. 21A-21I show DPI stimulates glycolysis through GPR3 and β-arrestin2. FIGS. 21A-21B show DPI-stimulated glycolysis is independent of the NOX activity. […] The mean fluorescence intensity (MFI) of 2-NBDG in cells was measured by flow cytometry and normalized to DMSO controls of wildtype BMDMs. Data are presented as the mean±sd (n=3). […] ImKCs were transfected with siRNA specific for Gpr3 or a scramble siRNA as control. […] Data are presented as the mean±sd (n=4). […] Data are presented as the mean±sd (n=12). […] Abbr2^−/− ImKC were constructed by CRISPR-Cas9-mediated gene editing. […] Data are presented as the mean±sd (n=4). […] ImKCs were transfected with Abbr2-GFP fusion gene and stimulated with DMSO, DPI (50 nM), or S1P (3 mM). The GFP signal was captured with a TIRF microscope at indicated time points. Shown are representative data of GFP signal at 0 min and 10 min, and merged signal from three independent experiments.
Specific parameters for glycolytic capacity and glycolytic reserve were calculated and summarized based on two independent experiments. […] The GFP signal was captured with a TIRF microscope at indicated time points. […]
BMDMs or ImKCs were cotransfected with plasmids encoding FLAG-GPR3-GFP or β-arrestin2-RFP. […] The fluorescent signals of membrane-bound receptor or β-arrestin2 were collected as live images using a total internal reflection fluorescence (TIRF) microscope (Olympus). […]

[1] = test system: hMDMs differentiated into M2 by IL-4 plus IL-13; assay: Reprogramming screen and dosage response on M2-like differentiated macrophages; conditions: Homo sapiens, Macrophage, 24 h, read-out: EC;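 also: human monocyte-derived macrophages held 24 h in 5 ng/mL IL-4 plus IL-13 before 24 h compound exposure, with cell shape measured from images in 384-well plates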
Procedure: Shown are comparison of Z-scores between 5 μM or 10 μM of compounds. […] Shown are comparison of Z-scores between 5 μM or 10 μM of compounds. […] EC and fitness of 21 M1-polarizing (triangle) and 19 M2-polarizing compounds (circle) were calculated by the Michaelis-Menten equation and plotted. Data were summarized from 3 independent experiments.
Human macrophages were seeded into optical 384-well plates. Sixteen hours later, medium in M1 plates were replaced by M1 differentiating medium (complete RPMI with 50 ng/mL IFNγ and 50 ng/mL TNFα) and medium in M2 plates by M2 differentiating medium (complete RPMI with 5 ng/mL IL-4 and 5 ng/mL IL-13). After 24 hrs cell differentiation, M1 plates (M1 macrophages) and M2 plates (M2 macrophages) were treated with M2-activating compounds and M1-activating compounds respectively for 24 hrs. Two independent experiments were performed with or without replacing differentiating medium right before treatment. Cell imaging and analysis were performed as indicated above.
To investigate whether the identified compounds could reprogram or reactivate macrophages after M1- or M2-like differentiation, we rescreened the hits on M1- or M2-activated macrophages. hMDMs were activated into M2-like macrophages by IL-4 plus IL-13 or M1-like macrophages by IFNγ plus TNFα. After removing the differentiating cytokines, M2-like macrophages were treated with each of the 166 M1-activating compounds and M1-like macrophages were treated with each of the 180 M2-activating compounds at a final concentration of either 5 μM and 10 μM. 24 hours later, cell images were taken and cell shapes were quantified. […] Dosage responses were carried out with 40 commercial available compounds (21 M1-activating and 19 M2-activating) on polarized macrophages.
We also rescreened the hits on differentiated macrophages in the presence of differentiating cytokines: either IL-4 plus IL-13 or IFNγ plus TNFα.

ImKCs [2] = conditions: dose- and time-dependent
Procedure: (§1) Total protein lysates were isolated from either mouse ImKCs with or without DPI treatment for 6 and 12 hrs or human primary macrophages with or without DPI treatment for 12 hrs at the indicated concentrations. Equal amounts of total proteins from whole-cell lysates were subjected to Western blotting analysis. β-actin was used as a loading control. Shown are representative data of two independent experiments. […] P values were calculated by student t-test. * P<0.05, ** P<0.01. n.s. not significant.
(§2) Proteins were extracted from cells with RIPA buffer. Protein concentration was quantified by BCA Protein Assay Kit (Pierce Biotechnology). Samples containing 20 μg total protein were resolved on a 10% SDS-PAGE gel and electro-transferred onto a PVDF membrane (Millipore Corporation). The membrane was blocked in 5% (w/v) fat-free milk in PBST (PBS containing 0.1% Tween-20). […] The blot was washed twice in PBST and then incubated with anti-Rabbit HRP-conjugated secondary antibody (Cell Signaling Technology, 1:2000) in 5% fat-free milk. The membrane was washed twice in PBST and subjected to protein detection by ECL Plus Western Blotting Detection System (GE Healthcare) before being exposed to a Kodak BioMax XAR film.

[3] = test system: human primary macrophages
Procedure: as §1, §2

ImKCs [4] = conditions: 6 hours, dose-dependent
Procedure: ImKCs were treated with DPI for 6 hrs and select metabolites in the glycolytic pathway and TCA cycle were quantified by LC-MS. Data are presented as the mean±sd (n=4). P values were calculated by student t-test. * P<0.05, ** P<0.01, *** P<0.001, **** P<0.0001.
ImKCs were treated with DPI (500 nM) for 24 hrs and the select metabolites were quantified by LC-MS. Shown are representative data of two independent experiments. P values were calculated by student t-test. * P<0.05, ** P<0.01. n.s. not significant.
ImKCs were treated with DPI (#81050, Cayman) at 50 or 500 nM for 6 hrs or 24 hrs. Cells were washed once in ice-cold 0.9% NaCl and lysates were extracted in 80% methanol solution containing internal standards for LC/MS by scraping on dry ice followed by 10-minute mixing with vortex in 4° C. Following lysate extraction, debris were removed by high-speed centrifugation and supernatant was dried using speedvac. Samples were analyzed by LC/MS on QExactive Orbitrap instruments (Thermo Scientific) in Whitehead Institute metabolite profiling core facility.

[5] = HFD 16 weeks
Procedure: At week 15 plus 3 days, mice from FIG. 32A were starved overnight (12˜16 hrs) with only water. Glucose (1 mg/kg) was injected intraperitoneally and blood glucose levels were measured at the indicated time. AUC were calculated for statistics (right panel).
Liver samples fixed in 10% buffered formalin were embedded in paraffin, sliced (2 μm sections), and stained with hematoxylin and eosin (H&E). Histological examination for morphological changes was performed in a blinded manner. Liver sections were scored according to the criteria of the NAFLD activity score (NAS).
The GTT were performed in mice 19 weeks after feeding with HFD or NC. For GTT, mice were fasted overnight, followed by an intraperitoneal injection of 1 g/kg glucose. […] Blood was obtained from the tail vein before (0 min) and after (15, 30, 60, 90 and 120 min) the injection of glucose or insulin. Glucose levels were measured using an automatic glucometer (Roche Diagnostics, Rotkreuz, Switzerland).
B6 mice were fed with HFD for 16 weeks.

[6] = KC-specific Pkm−/− mice
Procedure: FIGS. 24G-24H show DPI's effect on KC-specific Pkm^−/− mice fed with HFD. Male KC-specific Pkm^−/− mice at the age of 5 weeks were fed with HFD for a total of 8 weeks. Three weeks after HFD, half of the mice were given DPI in vehicle (2 mg/kg) and the other half were given vehicle every 5 days for a total of 6 doses. Body weights were monitored weekly (FIG. 24G). Data are presented as the mean±sd from two independent experiments with 6 mice per group. Comparison of H&E staining of liver sections after 8 weeks on HFD. Shown are representative H&E staining from one mouse per group. Arrows in FIG. 24F and FIG. 24H point to lipid droplets. Scale bar: 100 μm. P values were calculated by student t-test. * P<0.05, ** P<0.01, *** P<0.001, **** P<0.0001.
FIGS. 34A-34C show effect of DPI on Kupffer cell-specific Pkm^−/− mice on HFD. […] KC-specific Pkm^−/− mice were given HFD for a total of 8 weeks. Three weeks after HFD, half of the mice were given DPI in vehicle (2 mg/kg) and the other half were given vehicle every 5 days for a total of 6 doses. At 7 weeks plus 3 days, mice were starved overnight (12˜16 hrs) with only water. Glucose (1 mg/kg) was injected intraperitoneally and blood glucose levels were monitored at the indicated time. […] Sera from mice were collected at the end of HFD feeding and activities of AST and ALT were measured by colorimetric assay kits (Sigma). Shown are representative data from two independent experiments with 5˜6 mice per group. P values were calculated by student t-test. n.s. not significant. * P<0.05.
KC-specific Pkm^−/− mice were fed with HFD for 8 weeks starting at 5 weeks of age. Three weeks after HFD, half of the mice were given vehicle and the other half was given DPI (2 mg/kg) i.p. every 5 days.

[7] = test system: subcutaneous B16F10 tumors; assay: B16F10 melanoma model in B6 mice; assay type: in vivo, mouse; conditions: for tumor growth: alone; for tumor growth, with TA99: combination with TA99
[8] = test system: mouse BMMs with anti-CD20 labelled human B lymphoma cells (GMB); assay: ADCP of mouse macrophages; assay type: cell-based; design: dose or concentration left out as unconfirmed; conditions: co-culture 2 hrs
Procedure: Conditioned medium (CM) was collected and filtered. B16F10 melanoma cells were cultured for 12 hrs with CM or CM heat-inactivated at 95° C. for 5 min. The number of tumor cells were quantified by flow cytometry. Data were summarized from two independent experiments. * P<0.05 by T-test. P values are shown based on t-test. […] Mouse BMMs (FIG. 14B) or hMDM (FIG. 14C) were treated with […] thiostrepton for 24 hrs, then co-cultured with equal number of eFluro670 and anti-CD20 labelled human B-cell lymphoma cells for 2 hrs, and analyzed by flow cytometry. Macrophages that have phagocytosed tumor cells are identified as efluro670+ and CD14+. Shown are representative eFluro670 histograms gating on CD14+ macrophages from three different experiments.
To examine whether thiostrepton-activating macrophages or conditioned medium have effects on tumor cell growth, BMMs were treated with thiostrepton for 24 hrs. Equal numbers of primed BMMs and melanoma cells (B16F10) were co-cultured for 12 hrs. […] Thiostrepton elevated ADCP of both human and mouse macrophages (FIGS. 14B-14C).

[9] = flow cytometry, vs vehicle or TA99

Procedure for c-Myc: Transfected cells were not treated or treated with DPI (50 and 500 nM) for 6 hrs and luciferase activities were measured. Data are presented as the mean±sd (n=5). P values were calculated by student t-test. * P<0.05, ** P<0.01, *** P<0.001, **** P<0.0001.
The c-Myc activity was assessed using the Myc Reporter kit (BPS Biosciences) and the Dual-Luciferase Reporter System (Promega) according to the manufacturers' instructions. Briefly, 100 μL (1.5×10^5 cells/mL) control and Kupffer cells were seeded into 96-well plates. After overnight incubation, when cells reached ˜50% confluency, 1 μL of Reporter A (60 ng/μL) in the Myc Reporter kit was transfected into cells using Turbofectin 8.0. After 48 hours, cells were lysed in 25 μL Passive Lysis Buffer (provided in the Dual-Luciferase Reporter kit). 20 μL of cell lysate was transferred to 96-well plates and placed in a 96-well microplate luminometer (GloMax-Multi, Promega). 100 μL Luciferase Assay Reagent II and 100 μL Stop & Glo Reagent (both provided in the Dual-Luciferase Reporter kit) were sequentially injected, and firefly and Renilla luciferase activities were automatically measured. c-Myc activities were determined by the ratios of firefly to Renilla luciferase activities.

Structure (SMILES): c1ccc2c(c1)[I+]c1ccccc1-2 [Diphenyleneiodonium chloride]
- translocation of β-arrestin2 from cytosol to the plasma membrane (β-arrestin2): stimulated translocation
- EC (M1 Z-score cutoff) [1]: 0.336 µM
- HK, GAPDH, LDHA and enolase at the protein level (ImKCs [2]): upregulation
- blood glucose (15 and 30 min after glucose injection): significantly lower levels
- blood glucose (6 hours after DPI 2 mg/kg i.p.): significantly lower level
- transcription of genes in the glycolysis pathway ([3]; 50 nM, 24 hours, RNAseq): stimulates transcription
- HK, GAPDH, LDHA and enolase at the protein level ([3]; human primary macrophages, dose- and time-dependent): upregulation
- glucose level (ImKCs [4]): decreased significantly
- levels of TCA cycle intermediates (ImKCs [4]): all decreased
- levels of glycolysis intermediates (G6P, F1,6BP, G3P, pyruvate, lactate) (ImKCs [4]): increased significantly
- c-Myc luciferase activity (c-Myc; Pkm−/− ImKCs): not
- c-Myc luciferase activity (c-Myc; parental ImKCs, 50 and 500 nM, 6 hrs): induced
- glucose tolerance [5]: increased
- lipid droplet, steatosis and collagen deposition in the liver [5]: reduced
- weight gain ([5]; 2 mg/kg every 5 days from week 9): significantly reduced
- weight of iWAT ([5]; vs vehicle): significantly lower
- iWAT [6]: significantly lower level
- HFD-induced body-weight gain and lipid droplet deposition in the livers ([6]; 2 mg/kg i.p. every 5 days): did not reduce
- glucose tolerance, serum AST and ALT levels ([6]; with or without DPI): similar

Structure (SMILES): C=C(NC(=O)C(=C)NC(=O)c1csc(C2=N[C@@H]3c4csc(n4)[C@H]4NC(=O)c5csc(n5)[C@H]([C@](C)(O)[C@@H](C)O)NC(=O)[C@H]5CSC(=N5)/C(=C/C)NC(=O)[C@H]([C@@H](C)O)NC(=O)c5csc(n5)[C@]3(CC2)NC(=O)[C@H](C)NC(=O)C(=C)NC(=O)[C@H](C)NC(=O)[C@H]([C@@H](C)CC)N[C@@H]2C=Cc3c([C@H](C)O)cc(nc3[C@H]2O)C(=O)O[C@@H]4C)n1)C(N)=O [Thiostrepton]
- tumor growth ([7]; I.P., 150 or 300 mg/kg, dosage-dependent): strongly suppressed
- tumor growth, with TA99 ([7]; I.P., 150 or 300 mg/kg): additively
- expression of Tnf, Il1b, Cxcl1 and Cxcl2 in TAMs ([7]; RNA-seq, day 18, I.P. or S.C.): significantly upregulated
- macrophages and monocytes in tumors ([7]; day 18, flow cytometry, vs vehicle or TA99): elevated levels
- Arg1 in TAM [7, 9]: decreased levels
- iNOS and CD86 in TAM [7, 9]: elevated levels
- tumor growth ([7]; para-tumor S.C., 20 mg/kg): suppressed the tumor growth
- tumor growth, with TA99 ([7]; para-tumor S.C., 20 mg/kg): additive effects
- TNFα+ IFNγ+ NK cells in tumors ([7]; vs vehicle or TA99): increased number
- ADCP [8]: elevated
- EC (M1 Z-score cutoff) [1]: 0.408 µM
